Data set [1] is described as follows: ssRNA stability in hepatocyte cell homogenate assay (Example 65). It counts as in vitro ADME. The following applies: mouse hepatocyte homogenate, LC-MS; Test 1. As for the experimental part:
Hepatocytes were harvested from bal/c mice in ice-cold hepatocyte wash media (William E Media) with fetal bovine serum, sedimented by centrifugation at 1000 g for 8 minutes and then washed with hepatocyte wash media. Hepatocytes were homogenized with RIPA buffer (50 mM Tris pH 7.5, 10 mM MgCl2, 150 mM NaCl, 0.5% NP-40 alternative, one tablet of Roche protease inhibitor #11836170001), and centrifuged at 14000 g for 15 minutes at 4° C. and the supernatant was removed and stored in ice. Protein concentration (BSA mg/mL) was determined with Bradford assay and adjusted to a final protein concentration of 2 mg/mL by addition of Ripa buffer volume or cell homogenate volume.
[…] were homogenized in a homogenation buffer (20 mM Tris, pH 8, 20 mM EDTA and 0.1 M NaCl in 0.5% NP-40) at time points 0, 5, 10, 20, 30, 40 and 60 minutes (Exception: 06/408877 at time points 0, 15, 30, 60, 120 and 240 mins, 06/409044, at time points 0, 0.5, 1, 2, 4, 8, and 18 hours). An internal standard (18/355868, a 27-mer, 2′-O-methoxyethyl-modified phosphorothioate oligonucleotide, or 19/116847, a 5-10-5 gappmer, 2′-O-methoxyethyl-modified phosphorothioate oligonucleotide) with concentration at 20 ug/g was added prior to extraction. Tissue samples were extracted with 70 μL of NH4OH and 240 μL of phenol/chloroform/isoamyl alcohol (25:24:1). The supernatant was removed after centrifugation at 14000 rpm for 2 min. The remaining extractant was vortexed with an additional […] of water and the aqueous layer was removed and combined with the supernatant after centrifugation at 14000 rpm for 2 minutes.
Triethylammonium acetate solution at 1M ([…]) was added to the supernatant. The aqueous layer of the mixture was loaded onto the pre-conditioned Biotage™ Phenyl Solid Phase Extraction Plate (SPE plate) after centrifugation at 9000 rpm for 20 minutes. The SPE plate was washed several times with water. The sample was then eluted with 1.5 mL of 1% TEA in 90% MeOH and filtered through the Protein Precipitation Plate (Phenomenex™). The elutent was evaporated to dryness and diluted to 200 μL with 50% quenching buffer (8 M urea, 50 mM EDTA) and water before sample injection.
An Agilent 1100 Series LC/MSD system was connected in-line to a mass spectrometry. Mass spectrometer was operated in the electrospray negative ionization mode. The nebulizer nitrogen gas was set at […] and the drying nitrogen gas was set at 12 L/min. The drying temperature was 325° C. Samples (25 μL/well) were introduced via an auto sampler and reversed-phase chromatography was carried out with an XBridge OST C18 2.5 μm 2.1 mm×50 mm HPLC column using a flow rate of 300 μL/min at 55° C. The ion pair buffers consisted of A: 5 mM tributylammonium acetate (TBAA) in 20% acetonitrile and B: […] TBAA in 90% acetonitrile and the loading buffer was 25 mM TBAA in 25% Acetonitrile. Separation was performed on a 30% to 70% B in 9 min and then 80% B in 11 min gradient.
Quantitative analysis of oligonucleotide and internal standard by extracted ion chromatograms of the most abundant ions was performed using MSD ChemStation software. The results are expressed as half-time (T1/2) in the table below.

Data set [2] has as its system PTEN. Description: PTEN mRNA reduction in HeLa cells, dose response (Example 64). It counts as cell-based, human. The following applies: real-time PCR, 1.56-50 nM. As for the experimental part: A dose response experiment was performed targeting PTEN in human HeLa cells to determine the effects of placement of sugar and internucleoside linkages within ssRNAs. More specifically, the modified ssRNAs were tested for their ability to reduce PTEN mRNA in cultured cells. The modified ssRNAs are shown below, and contain 2′-OMe and 2′-fluoro modified nucleosides, two 2′-O-MOE modified nucleosides at the 3′-terminus, and seven phosphorothioate linkages at the 3′-terminus of the ssRNAs.
HeLa cells were treated with ssRNAs shown below at concentrations of 1.56 nM, 3.13 nM, 6.25 nM, 12.5 nM, […] and 50 nM using methods described herein. Levels of mRNA were determined using real-time PCR methods as described herein. The IC50 for each ssRNA was determined.

Data set [3] deals with human PTEN. In words: PTEN expression in HeLa cells, ssRNAs vs siRNAs (Example 62). In kind it is cell-based. The method in brief: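 HeLa cells treated with antisense strands either as single-stranded RNAs or duplexed with a common sense strand. PTEN mRNA levels normalized; IC50 from linear regression of normalized mRNA against log concentration.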
A short description of data set [4]: Phosphate stability in mouse serum (Example 68).
Method: Single-stranded oligomeric compounds were tested for stability in mouse serum.
Data set [5] deals with PTEN. Description: PTEN mRNA reduction in HeLa cells, dose response (Example 72). In kind it is cell-based, human. The following applies: percent inhibition of PTEN mRNA, 0.167-50 nM. How it is done: In accordance with the present disclosure, oligomeric compounds were synthesized and tested for their ability to reduce PTEN expression over a range of doses. Human HeLa cells were treated with the following oligomeric compounds. A dose comparison was evaluated with dose concentrations of 0.167, 0.5, 1.5, 5, 15 and 50 nM using methods described herein. Expression levels of PTEN were determined using real-time PCR and normalized to RIBOGREEN™ using methods described herein. The percent inhibition of PTEN mRNA was determined and the resulting dose-response curves were used to determine the IC50. The IC50s are listed below.

Where two headings read alike, the source gives them in different places. e = 2'-O-(2-methoxyethyl) (MOE); {P} = phosphate; f = 2'-fluoro

The IC50 is the concentration at which inhibition is half-maximal. Low values mean higher potency, high ones lower potency. For orientation: EC50 means the concentration giving half of the maximal effect. With “P-UfUfGfUfCfUfCfUfGfGfUfCfCfUfUfAfCfUfUfAeAe (antisense UUGUCUCUGGUCCUUACUUAA; sugars from the 5' end f19 e2, 5' {P}, backbone not given here) [ISIS 404320, modified ssRNA targeting PTEN]”, the “T1/2 Test 1” value in data set [1] stood at 4 min. Besides, the IC50 stood at 5.8 nM in data set [2] and 7.6 nM in data set [5]. The EC50 in data set [3] (antisense strand duplexed with sense strand ISIS 341401, PTEN mRNA, read-out: EC50 (nM) siRNA) is 0.5 nM; in data set [3] (single stranded antisense compound, PTEN mRNA, read-out: EC50 (nM) ssRNA) it was 5 nM. Also, the T1/2 full length in data set [4] (four compounds tested separately, second table) was found to be 24 min; in data set [4] (full compound with intact phosphorous moiety, first table), 24 min.

The values above are taken from patent publication US20130156845A1, “LIPID FORMULATED SINGLE STRANDED RNA” (ALNYLAM PHARMACEUTICALS, INC., priority 2010, published 2013).
